In US6737055B2, “Isolated cathepsin L type cysteine proteases and reducing intercorneocyte cohesion/promoting desquamation therewith” (Societe l'Oreal S.A., priority 1997, dated 2004):
Where a SMILES comes first, the peptide text is derived from it. [ ]: non-standard residue; d: D form. The star is where a group is joined. Sta = CC(C)C[C@H](N)[C@@H](O)CC(=O)O; Isovaleryl = CC(C)CC(=O)*

Legend:
[1] = test system: cysteine-dependent protease of the G4 peak; assay: Protease activity of G4 peak fractions (Enzcheck kit, BODIPYfl-caséine fluorometry) with or without known protease inhibitors, 5 mM cysteine; assay type: biochemical, human
Protocol: The protease activities contained in the fractions obtained by transporting over the Superdex G75 HR10/30® exclusion column were assayed by fluorometry using the Enzcheck® kit (Molecular Probes).
This kit is a rapid and simple method of measuring the protease activities, with no precipitation or separation phase and is therefore suitable for rapid screening of the protease activities of the different fractions. This protocol employs, as substrate therefor, BODIPYfl-caséine® which becomes fluorescent after enzymatic digestion. The fluorescence thus liberated is directly proportional to the protease activity contained in the sample. The fluorescence was measured on the LS50B spectrofluorometer, Perkin Elmer, with an excitation wavelength of 485 nm (slit of 2.5 nm), an emission wavelength of 535 nm (slit of 8 nm) and an integration time of 1 second per well.
The assays were carried out in the presence or absence of cysteine at a final concentration of 5 mM so as to detect possible cysteine protease activities.
In order to better characterize the cysteine-dependent protease isolated above, tests of inhibition by known protease inhibitors were carried out. The measurements were carried out in an identical manner to the preceding measurements in the presence of cysteine at a final concentration of 5 mM and in the presence or absence (control) of the inhibitor considered.

cathepsins D = details: in the presence of urea; cited from earlier work
cathepsins L = details: in the presence of urea; cited from earlier work
L cathepsins = L cathepsins (Homo sapiens, UniProt P07711); details: cited from earlier work
Chain of L cathepsins (P07711 114-333): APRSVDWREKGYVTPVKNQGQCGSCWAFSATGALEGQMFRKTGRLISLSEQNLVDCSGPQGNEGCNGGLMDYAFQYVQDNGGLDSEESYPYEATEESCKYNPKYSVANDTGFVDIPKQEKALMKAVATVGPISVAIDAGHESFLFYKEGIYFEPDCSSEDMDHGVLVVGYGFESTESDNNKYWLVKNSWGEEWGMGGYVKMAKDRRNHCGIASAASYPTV

## CC(C)C[C@H](NC(=O)[C@H]1O[C@@H]1C(=O)O)C(=O)NCCCCN=C(N)N [E 64]
[1]; E 64 at 1.4 μM, 5 mM cysteine, acetate buffer pH 5.0
  inhibition of the activity of the cysteine-dependent protease of the G4 peak: about 71%

## CCCNC(=O)[C@H]1O[C@@H]1C(=O)N[C@H](C(=O)N1CCC[C@H]1C(=O)O)[C@@H](C)CC [Inhibitor CA 074, CA 074]
[1]; 1 μM, 5 mM cysteine
  effect on the activity profile of the cysteine-dependent protease of peak G4: practically, did not affect the activity profile

## CC(=O)N[C@@H](CC(C)C)C(=O)N[C@@H](CC(C)C)C(=O)N[C@H](C=O)CCCNC(=N)N [Leupeptin]
[1]; leupeptin at 1 μM, in the presence of cysteine
  reduction of the protease activity of G4: about 41%

## CC(C)CC(=O)N[C@H](C(=O)N[C@H](C(=O)N[C@@H](CC(C)C)[C@@H](O)CC(=O)N[C@@H](C)C(=O)N[C@@H](CC(C)C)[C@@H](O)CC(=O)O)C(C)C)C(C)C [Pepstatin] (Isovaleryl-VV[Sta]A[Sta]-OH)
[1]; pepstatin at 1 μM, 5 mM cysteine
  action on G4 protease activity: without action

## CC(C)C[C@H](NC(=O)[C@@H](NC(=O)N[C@@H](Cc1ccccc1)C(=O)O)[C@@H]1CCN=C(N)N1)C(=O)N[C@H](C=O)Cc1ccccc1 [chymostatin, Chymostatin]
[1]; chymostatin at 2.5 μM, 5 mM cysteine
  inhibition of the cysteine-dependent protease of peak G4: more than 50%

## NC(N)=O [urea, Urea]
Cathepsins D
  factor by which cathepsin D activity is multiplied: 6
Cathepsins L
  factor by which cathepsin L activity is multiplied: 2.5

## Z(phe-arg 2R110)
L cathepsins
  sensitivity to the action of the L cathepsins relative to the B cathepsins: 850 times
